Reference: patent publication US8414871B2, “Controlled releases of actives in skin” (priority 2002, dated 2013)

Legend:
[1] = Dye penetration into skin layers, fluorescent microscopy of cryosectioned skin after passive permeation
Experimental: Human skin: The full thickness dermatomed (˜500 μm) human skin derived from the abdominal regions of female Caucasian cadavers were obtained from AlloSource (Englewood, Colo.) and stored at −80° C. Just before each experiment, the skin was allowed to thaw to room temperature and then used immediately for in vitro transport studies.
The receptor compartments were filled with 0.155 M phosphate buffered saline (pH 7.4, 5.1 mL), which was stirred at 600 rpm. The fluid in each receptor compartment was maintained at 37±0.5° C. by the use of a thermostatic water pump (Haake DC10, Karlsruhe, Germany) that circulated water through the jacket surrounding each main chamber. […] The skins were initially left in the Franz cells for 1 h in order to facilitate hydration of the membranes.
In all experiments, the donor compartment of the sampling port of each Franz cell was covered with a taught layer of Parafilm®, and the whole set up was roofed with aluminum foil to prevent the dye bleaching. Each permeation experiment was conducted in sextuplicate or quadruplicate (in case of time-dependency experiments).
At the end of the permeation experiment, the excess formulation was removed from the skin surface, skin sections were detached from the diffusion cells, washed three times with PBS, and dried gently with delicate task wipers (Kimwipes). The skins were frozen at −20° C., and 0.2×0.5 cm piece from the treated area was cut out and imbedded in optimal cutting temperature compound (OCT). A cryostat (Leica Cryostat CM 3050S, Wetzlar, Germany) was used to prepare the cross-section of full skin perpendicular to the skin surface. Nine to twelve vertical sections with a thickness of 20 μm each were obtained and stored at −4° C. till analyzed microscopically.
Fluorescent microscopy. Skin sections were subjected to both fluorescent and phase-contrast microscopy using Olympus CK40 microscope equipped with a UV source and filters for fluorescent measurement. Image capture and analysis were carried out using Olympus Microsuite™ B35V program. […] Images were recorded setting the camera integration time of 500 ms. The same parameters were used for imaging all samples and no corrections for the background fluorescence were made.
Quantitative analysis of dye penetration into skin was obtained by calculating pixel intensities from fluorescence measurements of skin sections. Image analysis was carried out for the epidermis (EP; consisting of stratum corneum and the viable epidermis), superficial dermis (SD) and lower dermis (LD) as schematically represented in FIG. 5. The superficial dermis is defined as the region measuring around 100 μm below the epidermis and the lower dermis is the remaining portion of the dermis below the superficial dermis.
H&E staining of the skin section (FIG. 5) was used to define the above layers for which quantitative analysis of dyes penetration was carried out.

[2] = Solute binding efficiency of nanospheres (HPLC); format: physicochemical
Experimental: The concentrations of the solutes were assayed by high-performance liquid chromatography (HPLC) using a Waters 2695 HPLC system equipped with UV/vis detector (Waters 2487, Dual 1 Absorbance Detector). Chromatographic separations were achieved using a RP-C18 column (Perkin-Elmer Brownlee Analytical C-18 column, 33 mm×4.6 mm) at 25° C. […] The mobile phase was delivered at a flow rate of 1 mL/min. […] Standard calibration samples were prepared at concentrations ranging from 1 to 50 μg/mL for all solutes. […] In addition, the specificity was determined by comparing the results obtained in the analysis of placebo supernatant, containing only nanospheres, with those obtained in the analysis of all standard solutions of the solutes and no interference from nanospheres was observed. To determine the solute binding efficiency, a predetermined aliquot of the purified nanosphere-solute complex suspension was withdrawn and freeze-dried, and the dry residue was accurately weighted before thoroughly dissolving in the extraction solvent. […] Solutes complexation by the nanospheres was characterized by the following ratio: [formula] Solutions of each solute in propylene glycol (PG) were prepared by stirring an excess of the molecule in PG at room temperature for 24 h. The samples were filtered through 0.22%μm PVDF syringe filters (Millipore, Bedford, Mass.), and the filtrates were used for all subsequent characterizations and experiments. For passive permeation experiments, the equal concentration (confirmed using RP-HPLC) of all solutes in both PG and nanospheres was achieved by subsequent dilution of either PG-solute solution with PG or NSP-solute formulation with PBS.

| change in dye penetration from EP to LD [1] | final concentration of solutes in nanospheres solutions [2] [µg/mL] | Compound | decrease of dye penetration from EP into the dermis [1] | decrease of fluorescence intensities from EP to LD ([1]; 24 hrs, NSP-dye formulations) [fold] | PE (penetration effect), fluorescence in epidermis ([1]; female, human, 24 h, pH 7.4) [ABU] |
| --- | --- | --- | --- | --- | --- |
| increase | 180 | CCCCCCCCCCCC(=O)Nc1ccc2c(c1)C(=O)OC21c2ccc(O)cc2Oc2cc(O)ccc21 [DAF, 5-Dodecanoylaminofluorescein] | about two and a half fold |  |  |
|  | 190 | COc1cc(/C=C/C(=O)CC(=O)/C=C/c2ccc(O)c(OC)c2)ccc1O [curcumin] |  |  |  |

| Compound | change in dye penetration from EP to LD [1] | final concentration of solutes in nanospheres solutions [2] [µg/mL] | decrease of dye penetration from EP into the dermis [1] | decrease of fluorescence intensities from EP to LD ([1]; 24 hrs, NSP-dye formulations) [fold] | PE (penetration effect), fluorescence in epidermis ([1]; female, human, 24 h, pH 7.4) [ABU] |
| --- | --- | --- | --- | --- | --- |
| CCN(CC)c1ccc2nc3c4ccccc4c(=O)cc-3oc2c1 [NR, Nile Red] |  | 200 | about five fold | 2.5 | 48.6±1.3 |
